# According to US8426203B2, “Culture medium containing gamma-aminobutyric acid, pipecolic acid or lithium for the maintenance of stem cells in an undifferentiated state” (Wisconsin Alumni Research Foundation, priority 2004, dated 2013):
# Tests used:
# human ES cells = assay: TeSR1 minus individual components, growth curve and FACS over three passages; format: cell-based
# Experimental: FIG. 4 is a graphical representation of data showing that the medium described here results in robust growth of pluripotent stem cells in culture. Specifically, what is shown is growth curve analysis for human ES cells cultured in complete TeSR1 (positive control), and TeSR1 minus the following individual components: TGFβ, pipecolic acid (PA), GABA, LiCl and bFGF, and TeSR1 minus all five growth factors (TeSR1—ALL or negative control); 3×10^5 cells were plated at day 0 of each passage.
# Triplicate wells of resulting cells were analyzed on day 6 of passage 3 by FACS for human ES cell markers. All results are presented for the H1 cell line; similar results were obtained for cell lines H7, H9 and H14.
# Inventors used human ES cell lines H1, H7, H9 and H14 (Thomson, J. A. et al. Science 282, 1145-1147 (1998)) in a program of human ES cell media optimization that included modifications to the physiochemical environment, growth factor supplements and matrix components. To accomplish this, human ES cell lines H1, H7, H9, and H14 were cultured on Matrigel (Becton Dickinson) in fibroblast-conditioned medium as previously described (Xu, C. et al. Nature Biotechnology 19, 971-974 (2001)). Cells were transitioned into test media by direct passage from conditioned medium. Cultures of human ES cells were routinely passaged in clumps at approximately weekly intervals onto Matrigel or human matrix-coated plates by exposure to dispase (2.0 or 0.5 mg/ml respectively: Invitrogen). Following 7 minutes of dispase exposure, cells were rinsed 3 (three) times on the plate with medium, followed by gentle scraping to collect. Colonies were further broken up by gentle pipetting and then plated. The human matrix-coated plates were composed of 10 μg/cm^2 human collagen IV (Sigma or Becton Dickinson), 0.2 μg/cm^2 human vitronectin (Sigma), 5 μg/cm^2 human fibronectin (Sigma or Becton Dickinson) and 5 μg/cm^2 human laminin (Sigma). During the course of these studies we successfully used 4 lots of fibronectin, 2 lots of collagen, 3 lots of laminin, and 3 lots of vitronectin. For growth curve proliferation studies, 3-5×10^5 cells were plated on Day 0 of each passage into conditioned medium, TeSR1 or TeSR1 minus the following components: TGFβ, PA, GABA, LiCl and bFGF. Cells were cultured for three passages. Cells were harvested on Day 2-3 and Day 6-7 and counted using a Trypan Blue exclusion assay. At the end of passage three, cells were individualized by treatment with trypsin/EDTA and were analyzed by FACS for human ES cell markers Oct-4, SSEA-4, Tra 1-60 and Tra 1-81 as subsequently described.
# [1] = system: human pluripotent stem cells; assay: Omission of medium components, Oct-4 expression after seven days; format: cell-based; conditions: for effect of omitting constituent on percentage of undifferentiated cells: Oct-4 expression
# Experimental: While a medium with all of the above constituents is sufficient and is preferred, not all of the components are necessary for the successful culture of human pluripotent stem cells. Depending on the amount of differentiated cells one is willing to tolerate, some of the components of the medium can be omitted, particularly if the medium is only used for a few passages. To further explore which constituents might be omitted, human pluripotent stem cells were cultured on variants of the above medium with differing components omitted. Two hundred thousand cells were plated and grown for seven days on each experimental medium, two wells per treatment. The cells were then assayed for expression of the transcription factor Oct-4, a recognized marker of undifferentiated cells.
# The data from that experiment are presented graphically in FIG. 7, where the numbers of Oct-4 expressing cells in each experimental medium are presented as a fraction of that from the preferred medium TeSR1. […] The difference between the percentage of undifferentiated cells and the omitted constituent is quantitative. Regardless of the omitted constituent, the medium does work, at least to some degree for limited cell passages, without each of the omitted components.
# ES03-DL1-K hES cells = assay: Cloning efficiency at different BME concentrations in TeSR1; format: cell-based, human
# Experimental: FIG. 15 illustrates the growth of hES cells grown in mTeSR1 with five different concentrations of beta mercaptoethanol (βME). ES03-DL1-K were grown for one to five passages, visualized (a), counted to determine proliferation and cloning efficiency (b), and stained using […] for Oct-4 and SSEA-4 to identify differentiation status of the cells (c). The treatment concentrations consisted of 0, 1.75, 3.5, 7, and 14 μL βME/500 mL of total TeSR1 media. Results shown are the mean from growth in 3 wells/treatment. This experiment was repeated multiple times both with ES03-DL1-K and H9-WA09 cells with similar results.
# Specifically, to optimize the physiochemical environment, human ES cells with an EGFP reporter gene and a neomycin resistance cassette under control of the endogenous Oct-4 gene were utilized for the physiochemical optimization assays. […] At the end of the growth period, cells from independent wells were individualized by treatment with trypsin/EDTA, counted and subjected to FACS analysis as subsequently described. To determine cloning efficiency of the cells, resulting colonies were stained with BCIP/NTB alkaline phosphatase substrate kit IV (Vector Laboratories) and counted. Percentages were determined by dividing colony number obtained by the initial number of cells plated. […]
Molecule,effect of removal of the factor from TeSR1 on culture performance (human ES cells),effect of omitting constituent on percentage of undifferentiated cells [1],"cloning efficiency of the cells (ES03-DL1-K hES cells; 0 and 1.75 μL BME/500 mL of total media, modified TeSR1)",increase in cloning efficiency (ES03-DL1-K hES cells; BME omitted or less than about 0.1 mM in TeSR1 vs same medium with higher than about 0.1 mM BME),"necessity of component (Oct-4 expressing cells as fraction of TeSR1) ([1]; short-term culture, high levels of FGF)",effect of removal from TeSR1 on total cell number and percentage of cells expressing ES cell markers (human ES cells)
"[Cl-].[Li+] [LiCl, lithium chloride]",significantly decreased some parameter of culture performance,increased percentages of undifferentiated cells,,,,
"NCCCC(=O)O [GABA, gamma-aminobutyric acid]",significantly decreased some parameter of culture performance,increased percentages of undifferentiated cells,,,,
"OCCS [BME, β-mercaptoethanol]",,,large increases in cloning efficiency,at least 10%,,
"O=C(O)C1CCCCN1 (stereo not shown) [PA, pipecolic acid]",significantly decreased some parameter of culture performance,increased percentages of undifferentiated cells,,,,
TGFβ: transforming growth factor beta,significantly decreased some parameter of culture performance,,,,least necessary component,
"bFGF: fibroblast growth factor, also referred to as FGF2",significantly decreased some parameter of culture performance,increased percentages of undifferentiated cells,,,,consistently decreased
